Experimental findings from patent US20220389009A1, “SUBSTITUTED 1,6-NAPHTHYRIDINE INHIBITORS OF CDK5” (Goldfinch Bio, Inc., priority 2019, published 2022) are described below.

pIC50: −log10 of the molar value. A value given as a limit tells only on which side of the number the result lay.

As usually defined, the pIC50 is the negative decadic logarithm of the IC50, by convention in mol/L.

One assay concerns the target CDK2/CycA2 (Homo sapiens, UniProt P24941). The experiment in a line: CDK2 mobility shift assay (enzymatic activity of CDK2/CycA2). To be noted: 1.25 nM CDK2/CycA2, 37 μM ATP, FL Peptide 18, 120 min at room temperature; read-out: CDK2 IC50. The assay is classed as biochemical. Summed up:
(§1)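 Carna CDK5/p25 (0.154 nM) or CDK2/CycA2 (1.25 nM) was preincubated 30 min with compound, ATP ([…] for CDK5; 37 μM for CDK2) and 10 mM MgCl2 in HEPES pH 7.5. The reaction was started with 1.5 μM FL peptide (29 for CDK5, 18 for CDK2) and run 60 min (CDK5) or 120 min (CDK2) at room temperature. Product was read by mobility shift, with IC50 from a 4-parameter fit.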

Another assay concerns the target CDK5/p25 (Homo sapiens, UniProt Q00535). Kind of assay: CDK5 mobility shift assay (enzymatic activity of CDK5/p25). To be noted: for pIC50: 0.154 nM CDK5/p25, FL peptide 29, 60 min at room temperature, read-out: CDK5 IC50; for CDK5/CDK2 specificity: fold more active against CDK5 than CDK2. The assay is classed as biochemical. In a few lines: as §1

CDK5/p25, sequence (Q00535 whole entry): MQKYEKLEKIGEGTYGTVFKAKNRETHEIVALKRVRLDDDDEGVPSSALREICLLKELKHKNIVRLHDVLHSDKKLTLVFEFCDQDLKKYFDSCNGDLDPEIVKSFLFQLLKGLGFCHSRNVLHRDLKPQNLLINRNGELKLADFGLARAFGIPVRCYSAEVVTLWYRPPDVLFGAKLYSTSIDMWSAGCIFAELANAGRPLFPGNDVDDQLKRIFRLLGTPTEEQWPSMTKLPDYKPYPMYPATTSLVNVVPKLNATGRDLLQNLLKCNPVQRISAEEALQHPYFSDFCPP
CDK5/p25, sequence (Q15078 99-307 partner limits assumed): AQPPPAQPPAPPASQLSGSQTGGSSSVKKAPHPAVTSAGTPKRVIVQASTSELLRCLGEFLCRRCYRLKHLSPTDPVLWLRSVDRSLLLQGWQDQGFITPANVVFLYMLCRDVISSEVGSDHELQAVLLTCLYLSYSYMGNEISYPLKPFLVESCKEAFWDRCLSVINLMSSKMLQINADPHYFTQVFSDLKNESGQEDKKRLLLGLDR

On to `NC(=O)c1cccc(-c2ccc(Nc3cc4nc(S(=O)(=O)C5CCN(CC6COC6)CC5)ccc4cn3)c(F)c2)c1` [Compound 326], for which the negative-log IC50 (pIC50) at CDK2/CycA2 is 6.00 to 7.00. For the same molecule, on CDK5/p25, the pIC50 is greater than 8.00 and the CDK5/CDK2 specificity result was “+++ (greater than 100-fold more active against CDK5 than CDK2)”.

`CN1CCC(C(C)(O)c2ccc3cnc(Nc4ccc(-c5cccnc5)cc4F)cc3n2)CC1` (stereo not drawn) [Compound 327]: the pIC50 on CDK2/CycA2 is less than 6.00. Besides, at CDK5/p25, the pIC50 was 6.00 to 7.00; the CDK5/CDK2 specificity result was “++ (greater than 10-fold and less than or equal to 100-fold more active against CDK5 than CDK2)”.

Regarding `COc1cc(-c2ccc(Nc3cc4nc(S(=O)(=O)C5CCN(CC6COC6)CC5)ccc4cn3)c(F)c2)ccn1` [Compound 328], the pIC50 at CDK2/CycA2 is less than 6.00. Also, on CDK5/p25, the negative logarithm of the IC50 (pIC50) is greater than 8.00 and the CDK5/CDK2 specificity result is given as “+++ (greater than 100-fold more active against CDK5 than CDK2)”.

`CN1CCC(C(C)(O)c2ccc3cnc(Nc4ccc(-c5cccnc5)cc4F)cc3n2)CC1` (stereo not drawn) [Compound 329]: the pIC50 on CDK2/CycA2 is 7.00 to 8.00. In addition, at CDK5/p25, the pIC50 is greater than 8.00; the CDK5/CDK2 specificity result is “++ (greater than 10-fold and less than or equal to 100-fold more active against CDK5 than CDK2)”.

Turning to `COc1cc(-c2ccc(Nc3cc4nc(C(C)(O)C5CCN(C)CC5)ccc4cn3)c(F)c2)ccn1` (stereo not drawn) [Compound 330], at CDK2/CycA2, the pIC50 was less than 6.00. On CDK5/p25, the negative-log IC50 (pIC50) is less than 6.00; the CDK5/CDK2 specificity result was “++ (greater than 10-fold and less than or equal to 100-fold more active against CDK5 than CDK2)”.

In the case of `COc1ccc(-c2ccc(Nc3cc4nc(S(=O)(=O)C5CCN(CC6COC6)CC5)ccc4cn3)c(F)c2)cc1` [Compound 331], the pIC50 at CDK2/CycA2 was 6.00 to 7.00. In addition, on CDK5/p25, the pIC50 is greater than 8.00; the CDK5/CDK2 specificity entry is “++ (greater than 10-fold and less than or equal to 100-fold more active against CDK5 than CDK2)”.

Turning to `O=S(=O)(c1ccc2cnc(Nc3ccc(-n4cccn4)cc3F)cc2n1)C1CCN(CC2COC2)CC1` [Compound 332], the pIC50 on CDK2/CycA2 is 6.00 to 7.00; at CDK5/p25 it was greater than 8.00. Also, the CDK5/CDK2 specificity result on CDK5/p25 is “+++ (greater than 100-fold more active against CDK5 than CDK2)”.

Consider `COc1cc(-c2ccc(Nc3cc4nc(C(C)C5CCN(C)CC5)ccc4cn3)c(F)c2)ccn1` (stereo not drawn) [Compound 333], for which the pIC50 on CDK2/CycA2 was 6.00 to 7.00. Also, at CDK5/p25, the pIC50 was greater than 8.00 and the CDK5/CDK2 specificity result is “+++ (greater than 100-fold more active against CDK5 than CDK2)”.

For `CNC(=O)c1ccn(-c2ccc(Nc3cc4nc(S(=O)(=O)C5CCN(CC6COC6)CC5)ccc4cn3)c(F)c2)n1` [Compound 334], on CDK2/CycA2, the pIC50 was 6.00 to 7.00. Further, on CDK5/p25, the pIC50 was greater than 8.00; the CDK5/CDK2 specificity result is “++ (greater than 10-fold and less than or equal to 100-fold more active against CDK5 than CDK2)”.

Turning to `CN1CCC(C(C)(O)c2ccc3cnc(Nc4ccc(-c5cccc(C#N)c5)cc4F)cc3n2)CC1` (stereo not drawn) [Compound 335], the values for the pIC50 on CDK2/CycA2 and on CDK5/p25 were 7.00 to 8.00 and greater than 8.00, respectively. Moreover, the CDK5/CDK2 specificity entry at CDK5/p25 was “++ (greater than 10-fold and less than or equal to 100-fold more active against CDK5 than CDK2)”.

In the case of `COc1cccc(-c2ccc(Nc3cc4nc(S(=O)(=O)C5CCN(CC6COC6)CC5)ccc4cn3)c(F)c2)n1` [Compound 336], the pIC50 on CDK2/CycA2 was 6.00 to 7.00. Further, on CDK5/p25, the pIC50 was greater than 8.00 and the CDK5/CDK2 specificity entry is “+++ (greater than 100-fold more active against CDK5 than CDK2)”.

Turning to `CN1CCC(C(C)(O)c2ccc3cnc(Nc4ccc(-c5cccc(C#N)c5)cc4F)cc3n2)CC1` (stereo not drawn) [Compound 337], the negative logarithm of the IC50 (pIC50) on CDK2/CycA2 is less than 6.00. Further, on CDK5/p25, the pIC50 is 6.00 to 7.00; the CDK5/CDK2 specificity entry is “++ (greater than 10-fold and less than or equal to 100-fold more active against CDK5 than CDK2)”.

On to `CN(C)C(=O)c1ccn(-c2ccc(Nc3cc4nc(S(=O)(=O)C5CCN(CC6COC6)CC5)ccc4cn3)c(F)c2)n1` [Compound 338], for which, at CDK2/CycA2, the pIC50 was 6.00 to 7.00. Further, at CDK5/p25, the pIC50 was greater than 8.00 and the CDK5/CDK2 specificity entry is reported as “+++ (greater than 100-fold more active against CDK5 than CDK2)”.

For `COc1cc(-c2ccc(Nc3cc4nc(C(C)C5CCN(C)CC5)ccc4cn3)c(F)c2)ccn1` (stereo not drawn) [Compound 339], the pIC50 at CDK2/CycA2 is less than 6.00. Also, at CDK5/p25, the negative logarithm of the IC50 (pIC50) is 7.00 to 8.00; the CDK5/CDK2 specificity entry is “++ (greater than 10-fold and less than or equal to 100-fold more active against CDK5 than CDK2)”.

On to `CC(C)(O)c1ccn(-c2ccc(Nc3cc4nc(S(=O)(=O)C5CCN(CC6COC6)CC5)ccc4cn3)c(F)c2)n1` [Compound 340], for which, at CDK2/CycA2, the pIC50 is less than 6.00. On CDK5/p25, the pIC50 is 7.00 to 8.00; the CDK5/CDK2 specificity entry was “++ (greater than 10-fold and less than or equal to 100-fold more active against CDK5 than CDK2)”.

Consider `Cc1cccc(Nc2cc3nc(C(C)(O)C4CCN(C)CC4)ccc3cn2)c1` (stereo not drawn) [Compound 341], for which the pIC50 is 7.00 to 8.00 on CDK2/CycA2 and greater than 8.00 at CDK5/p25. The CDK5/CDK2 specificity entry at CDK5/p25 was “++ (greater than 10-fold and less than or equal to 100-fold more active against CDK5 than CDK2)”.

`CN1CCC(C(C)(O)c2ccc3cnc(Nc4ccc(-c5cncnc5)cc4F)cc3n2)CC1` (stereo not drawn) [Compound 342]: the negative-log IC50 (pIC50) on CDK2/CycA2 was 7.00 to 8.00. Also, on CDK5/p25, the pIC50 was greater than 8.00; the CDK5/CDK2 specificity entry was “++ (greater than 10-fold and less than or equal to 100-fold more active against CDK5 than CDK2)”.

For the molecule `COC(=O)c1ccn(-c2ccc(Nc3cc4nc(C(O)C5CCN(C)CC5)ccc4cn3)c(F)c2)n1` (stereo not drawn) [Compound 344], the pIC50 was less than 6.00 at CDK2/CycA2 and 6.00 to 7.00 on CDK5/p25. Also, the CDK5/CDK2 specificity result on CDK5/p25 is “++ (greater than 10-fold and less than or equal to 100-fold more active against CDK5 than CDK2)”.

On to `CN1CCC([C@@](C)(O)c2ccc3cnc(Nc4ccccc4)cc3n2)CC1` [Compound 345, (1R)-1-(1-methylpiperidin-4-yl)-1-[7-(phenylamino)-1,6-naphthyridin-2-yl]ethanol], for which the pIC50 at CDK2/CycA2 was 7.00 to 8.00; on CDK5/p25 it was greater than 8.00. Further, the CDK5/CDK2 specificity result on CDK5/p25 was “++ (greater than 10-fold and less than or equal to 100-fold more active against CDK5 than CDK2)”.

With `CN1CCC(C(C)(O)c2ccc3cnc(Nc4ccc(-c5ccc(=O)n(C)c5)cc4F)cc3n2)CC1` (stereo not drawn) [Compound 346], the negative logarithm of the IC50 (pIC50) on CDK2/CycA2 is less than 6.00. On CDK5/p25, the pIC50 is 6.00 to 7.00; the CDK5/CDK2 specificity entry was “++ (greater than 10-fold and less than or equal to 100-fold more active against CDK5 than CDK2)”.

Regarding `COC(=O)c1ccn(-c2ccc(Nc3cc4nc(C(O)C5CCN(C)CC5)ccc4cn3)c(F)c2)n1` (stereo not drawn) [Compound 347], the negative-log IC50 (pIC50) is 6.00 to 7.00 on CDK2/CycA2 and greater than 8.00 at CDK5/p25. Besides, on CDK5/p25, the CDK5/CDK2 specificity result was “+++ (greater than 100-fold more active against CDK5 than CDK2)”.

Consider `CN1CCC(C(C)(O)c2ccc3cnc(Nc4cccc(N5CCOCC5)c4)cc3n2)CC1` (stereo not drawn) [Compound 348], for which, on CDK2/CycA2, the negative-log IC50 (pIC50) is 6.00 to 7.00. For the same molecule, on CDK5/p25, the negative-log IC50 (pIC50) is greater than 8.00; the CDK5/CDK2 specificity entry was “++ (greater than 10-fold and less than or equal to 100-fold more active against CDK5 than CDK2)”.

On to `CN1CCC(C(C)(O)c2ccc3cnc(Nc4cccc(N5CCCC5=O)c4)cc3n2)CC1` (stereo not drawn) [Compound 350], for which the negative logarithm of the IC50 (pIC50) at CDK2/CycA2 was 7.00 to 8.00. Further, on CDK5/p25, the pIC50 was greater than 8.00; the CDK5/CDK2 specificity entry was “++ (greater than 10-fold and less than or equal to 100-fold more active against CDK5 than CDK2)”.

For `CN1CCC(C(C)(O)c2ccc3cnc(Nc4ccc(-c5ccc(=O)n(C)c5)cc4F)cc3n2)CC1` (stereo not drawn) [Compound 351], the pIC50 at CDK2/CycA2 is 7.00 to 8.00. Further, at CDK5/p25, the pIC50 was greater than 8.00; the CDK5/CDK2 specificity entry was “++ (greater than 10-fold and less than or equal to 100-fold more active against CDK5 than CDK2)”.

For `CN1CCC(C(C)(O)c2ccc3cnc(Nc4ccc(-c5cccn(C)c5=O)cc4F)cc3n2)CC1` (stereo not drawn) [Compound 352], the results for the pIC50 on CDK2/CycA2 and on CDK5/p25 were 6.00 to 7.00 and greater than 8.00, respectively. Moreover, the CDK5/CDK2 specificity result on CDK5/p25 is reported as “+++ (greater than 100-fold more active against CDK5 than CDK2)”.

Regarding `CN1CCC(C(C)(O)c2ccc3cnc(Nc4ccc(CN5CCOCC5)cc4F)cc3n2)CC1` (stereo not drawn) [Compound 353], the pIC50 on CDK2/CycA2 was 7.00 to 8.00. Besides, on CDK5/p25, the negative-log IC50 (pIC50) was greater than 8.00; the CDK5/CDK2 specificity entry was “++ (greater than 10-fold and less than or equal to 100-fold more active against CDK5 than CDK2)”.

On to `CN1CCC(C(C)(O)c2ccc3cnc(Nc4ccc(-c5cccc(=O)n5C)cc4F)cc3n2)CC1` (stereo not drawn) [Compound 354], for which the pIC50 on CDK2/CycA2 was 7.00 to 8.00; on CDK5/p25, greater than 8.00. Also, on CDK5/p25, the CDK5/CDK2 specificity result is “++ (greater than 10-fold and less than or equal to 100-fold more active against CDK5 than CDK2)”.

On to `CN1CCC(C(C)(O)c2ccc3cnc(Nc4ccc(-c5noc(=O)[nH]5)cc4F)cc3n2)CC1` (stereo not drawn) [Compound 355], for which, at CDK2/CycA2, the pIC50 was 7.00 to 8.00. Moreover, at CDK5/p25, the pIC50 was greater than 8.00; the CDK5/CDK2 specificity result was “++ (greater than 10-fold and less than or equal to 100-fold more active against CDK5 than CDK2)”.

On to `CN1CCC(C(C)(O)c2ccc3cnc(Nc4ccc(-c5ccc(C#N)cn5)cc4F)cc3n2)CC1` (stereo not drawn) [Compound 356], for which, on CDK2/CycA2, the pIC50 is 7.00 to 8.00. Moreover, at CDK5/p25, the pIC50 was greater than 8.00; the CDK5/CDK2 specificity entry is “++ (greater than 10-fold and less than or equal to 100-fold more active against CDK5 than CDK2)”.

For the molecule `CN1CCC(C(C)(O)c2ccc3cnc(Nc4ccc(-c5ccc(C#N)cc5)cc4F)cc3n2)CC1` (stereo not drawn) [Compound 358], the negative logarithm of the IC50 (pIC50) on CDK2/CycA2 is 7.00 to 8.00. Moreover, at CDK5/p25, the negative-log IC50 (pIC50) was greater than 8.00; the CDK5/CDK2 specificity entry was “++ (greater than 10-fold and less than or equal to 100-fold more active against CDK5 than CDK2)”.
